# Data taken from patent publication US9260481B2, “Peptide derivatives as antibiotics” (priority 2011, dated 2016).
# Where two headings read alike, the source gives them in different places. Numbered stars: 1 amine (or outer) side, 2 acyl side, 3 side chain; on linkers, the order of the positions; unused ones are H or OH. Square brackets hold non-standard residues; d marks the D form. Peptide text beside a SMILES is read from it. * marks the point of attachment. ξ: configuration not given here. X1 = NCC(O)CCC(N[*:1])C(=O)[*:2]; ΔZArg = N=C(N)NCC/C=C(\N)C(=O)O; ξDab(3-OH) = NCC(O)C(N)C(=O)O; Orn = NCCC[CH](N)C(=O)O; NH(CH2)4NH2 = NCCCCN*
# Assays:
# Bacteroides fragilis = assay: microbe, parasite or virus in culture; details: Bacteroides fragilis, ATCC25238
# Experimental: (§1) The minimal inhibitory concentrations (MIC) were determined according to the Clinical and Laboratory Standards Institute (CLSI) conditions guidelines detailed in Table 7. Assays were performed in triplicate.
# (§2) Preparation of Inocula. Five to 10 well-isolated colonies were picked and resuspended in 3 ml sterile saline. The inoculum was re-suspended by vigorous shaking on a vortex mixer for 15 s. Turbidity was adjusted to McFarland standard 0.5 ([…]). The inoculum was further diluted in the appropriate media (Table 7) to give a final inoculum in each well of ˜2-8×10^5 CFU/ml.
# (§3) Addition of Test Article. Stock solutions of Odilomycin A or comparator were diluted in the appropriate media to give a maximum starting concentration of 50 μg/mL in the assay. 50 μL of medium was dispensed into each well in columns two to 12 of a 96 well plate. 100 μL of the appropriate test compound solution (100 μg/mL) was dispensed into each well in column one. In the case of M. catarrhalis, M. haemolytica and P. multocida these values were doubled (a final assay volume of 200 μL was used). […] Columns 11 and 12 served as positive (no drug or test article, inoculum added), and negative (no drug, test article, or inoculum added) growth controls respectively.
# (§4) Addition of Bacterial Strains. 50 μL of each inoculum suspension was added to the appropriate wells, resulting in a final volume of 100 μL consisting of 50 μL diluted compound or diluents, and 50 μL of inoculum or broth alone.
# P. aeruginosa ATCC 27853 = type: cell-based, Pseudomonas aeruginosa; details: ATCC 27853, 24 h
# Experimental: (§5) Minimal bactericidal concentrations (MBCs) were established by extending the MIC procedure to the evaluation of bactericidal activity. After 24 hours, 10 μL were drawn from the wells, serially diluted and then spotted onto suitable agar plates. The plates were incubated at 37° C. overnight. […] All the experiments were done in triplicate.
# S. aureus ATCC 13709 = type: cell-based, Staphylococcus aureus; details: ATCC 13709, 24 h
# Experimental: as §5
# Cytotoxicity test (MTS) = type: cell-based; details: human; for CC50 at 72 h: MTS; for viability at 72 h: dose of up to 100 μg/mL, read-out: cell viability
# Experimental: The cytotoxicity of the Odilomycins A-C was investigated against Human colon adenocarcinoma (HT29) cells and Human normal lung fibroblasts (MRC-5) cells. 200 μL of the cell suspension of HT29 (human colorectal adenocarcinoma) prepared in RPMI 1640+1% L-Glutamine supplemented with 10% (v/v) fetal calf serum and 200 μL of the cell suspension of MRC5 (human lung fibroblast) prepared in Dulbecco's modified Eagle's medium supplemented with 25 mM glucose and 10% (v/v) fetal calf serum were inoculated into 96-well plates.
# The inoculating cell number was 800 cells per well for HT29 and 2100 cells per well for MRC-5. The microplates were incubated at 37° C. for 24 h with 5% of CO2.
# Twenty four hours later, Odilomycin A, B or C dissolved in water were added for 72 h at a final concentration from 0.78 μg/mL to 100 μg/mL in a fixed volume of water (1% final concentration). […] Experiments were done in triplicate.
# Pseudomonas aeruginosa = system: Pseudomonas aeruginosa
# Experimental: as §1, §2, §3, §4
# [1] = HT29 colon adenocarcinoma cells
# [2] = MRC-5 normal lung fibroblasts, MRC-5 cells
MIC (Bacteroides fragilis),SMILES,MBC (P. aeruginosa ATCC 27853),MBC (S. aureus ATCC 13709),CC50 at 72 h (Cytotoxicity test (MTS); [1]),viability at 72 h (Cytotoxicity test (MTS); [1]),CC50 at 72 h (Cytotoxicity test (MTS); [2]),viability at 72 h (Cytotoxicity test (MTS); [2]),MIC (Pseudomonas aeruginosa)
0.39 µg/mL,"Cc1ncc([N+](=O)[O-])n1CCO [metronidazole, reference compound]",–,–,–,–,–,–,–
–,"N=C(N)NCC/C=C(\NC(=O)C(CCCCN)NC(=O)C(Cc1cnc[nH]1)NC(=O)C1CCCN1C(=O)C(CCCN)NC(=O)CNC(=O)C(NC(=O)C(NC(=O)C(N)CCCCN)C(O)CN)C(O)CN)C(=O)NC(CCC(O)CN)C(=O)NCCCCN (stereo not drawn) [Odilomycin B, Lys-(3-hydroxy-2,4-diaminobutanoic acid)-(3-hydroxy-2,4-diaminobutanoic acid)-Gly-Ornithine-Pro-His-Lys-(2,3-dehydroarginine)-(5-hydroxylysine)-(1,4-diaminobutane)] (H-K[ξDab(3-OH)][ξDab(3-OH)]G[Orn]PHK[ΔZArg][X1]-{NH(CH2)4NH2}; configuration not given here)",3.12 µg/mL,0.78 µg/mL,> 100 µg/mL,100%,> 100 µg/mL,100%,–
–,"N=C(N)NCC/C=C(\NC(=O)C(CCCCN)NC(=O)C(Cc1cnc[nH]1)NC(=O)C1CCCN1C(=O)C(CCCN)NC(=O)CNC(=O)C(NC(=O)C(NC(=O)C(N)CCCCN)C(O)CN)C(O)CN)C(=O)NC(CCCCN)C(=O)NCCCCN (stereo not drawn) [Odilomycin C, Lys-(3-hydroxy-2,4-diaminobutanoic acid)-(3-hydroxy-2,4-diaminobutanoic acid)-Gly-Ornithine-Pro-His-Lys-(2,3-dehydroarginine)-Lys-(1,4-diaminobutane)] (H-K[ξDab(3-OH)][ξDab(3-OH)]G[Orn]PHK[ΔZArg]K-{NH(CH2)4NH2}; configuration not given here)",12.5 µg/mL,1.56 µg/mL,> 100 µg/mL,100%,> 100 µg/mL,100%,6.25 µg/mL
